Measured values published in patent US20230203041A1, “ANTAGONISTS OF THE ADENOSINE A2A RECEPTOR” (AdoRx Therapeutics Limited, priority 2020, published 2023).

Tests used:
[1] = molecular target: T1, human Adenosine A1 receptor (Homo sapiens, UniProt P30542); assay: Adenosine receptor TR-FRET binding assay (CA200645 displacement), A1
T1 sequence (P30542 1-326): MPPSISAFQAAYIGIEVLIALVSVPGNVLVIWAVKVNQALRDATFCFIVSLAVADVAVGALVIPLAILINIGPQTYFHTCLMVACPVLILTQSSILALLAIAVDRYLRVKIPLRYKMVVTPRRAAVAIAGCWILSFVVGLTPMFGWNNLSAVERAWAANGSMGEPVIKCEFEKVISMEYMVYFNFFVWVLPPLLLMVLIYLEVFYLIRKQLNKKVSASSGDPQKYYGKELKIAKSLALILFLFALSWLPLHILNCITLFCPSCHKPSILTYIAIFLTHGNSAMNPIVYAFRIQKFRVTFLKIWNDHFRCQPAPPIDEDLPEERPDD

[2] = molecular target: T2, human Adenosine A2a receptor (Homo sapiens, UniProt P29274); assay: Adenosine receptor TR-FRET binding assay (CA200645 displacement), A2a; details: 100 nM CA200645, CHO cell membranes, 2 hours at room temperature
T2 construct: expressed in transfected cells; host or cells: CHO cell membranes

[3] = molecular target: T3, human Adenosine A2b receptor (Homo sapiens, UniProt P29275); assay: Adenosine receptor TR-FRET binding assay (CA200645 displacement), A2b; details: 30 nM CA200645, CHO cell membranes, 2 hours at room temperature
T3 construct: expressed in transfected cells; host or cells: CHO cell membranes
T3 sequence (P29275 1-332): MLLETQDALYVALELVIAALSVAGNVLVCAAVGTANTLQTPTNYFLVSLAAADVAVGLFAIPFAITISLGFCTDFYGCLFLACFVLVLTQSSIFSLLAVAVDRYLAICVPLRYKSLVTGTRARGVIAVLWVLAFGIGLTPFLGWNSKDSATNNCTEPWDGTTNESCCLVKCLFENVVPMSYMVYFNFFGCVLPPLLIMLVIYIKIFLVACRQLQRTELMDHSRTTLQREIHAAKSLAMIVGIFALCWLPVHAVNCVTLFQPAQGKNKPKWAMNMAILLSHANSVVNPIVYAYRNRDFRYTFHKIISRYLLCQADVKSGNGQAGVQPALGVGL

[4] = molecular target: T4, human Adenosine A3 receptor (Homo sapiens, UniProt P0DMS8); assay: Adenosine receptor TR-FRET binding assay (CA200645 displacement), A3
T4 sequence (P0DMS8 1-318): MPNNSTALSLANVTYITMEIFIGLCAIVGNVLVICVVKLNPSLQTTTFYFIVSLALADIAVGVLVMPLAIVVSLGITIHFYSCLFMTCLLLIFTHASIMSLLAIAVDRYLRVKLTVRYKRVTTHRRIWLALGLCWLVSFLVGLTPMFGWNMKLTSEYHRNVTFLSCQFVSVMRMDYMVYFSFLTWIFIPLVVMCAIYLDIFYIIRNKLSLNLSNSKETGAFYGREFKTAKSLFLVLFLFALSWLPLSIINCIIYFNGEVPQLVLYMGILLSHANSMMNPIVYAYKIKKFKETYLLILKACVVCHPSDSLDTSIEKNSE

T2 sequence (P29274 whole entry): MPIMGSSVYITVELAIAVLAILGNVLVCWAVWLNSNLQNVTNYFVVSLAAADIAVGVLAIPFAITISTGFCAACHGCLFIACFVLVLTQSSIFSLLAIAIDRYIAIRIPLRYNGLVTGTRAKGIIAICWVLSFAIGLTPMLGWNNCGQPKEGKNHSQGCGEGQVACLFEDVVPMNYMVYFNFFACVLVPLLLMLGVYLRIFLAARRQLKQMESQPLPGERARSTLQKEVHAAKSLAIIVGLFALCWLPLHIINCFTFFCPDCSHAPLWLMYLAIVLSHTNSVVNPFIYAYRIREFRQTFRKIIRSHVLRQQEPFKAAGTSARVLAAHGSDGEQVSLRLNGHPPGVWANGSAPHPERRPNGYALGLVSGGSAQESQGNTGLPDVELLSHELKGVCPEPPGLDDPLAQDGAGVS

| SMILES | Ki [1] [nM] | Ki [2] [nM] | Ki [3] [nM] | Ki [4] [nM] |
| --- | --- | --- | --- | --- |
| Cc1cc(-c2c(-c3cccc(C#N)c3)nn3ccc(N4CC5CCC(C4)N5C)nc23)cc(Cl)n1 [Example 2.2] | 5 | 0.5 | 45 | > 1000 |
| CO[C@H]1CN(C)C[C@@H]1Nc1ccn2nc(-c3cccc(C#N)c3)c(-c3cc(C)nc(Cl)c3)c2n1 [Example 2.5] | 24 | 0.9 | 1 | > 1000 |
| Cc1cc(-c2c(-c3cccc(C#N)c3)nn3ccc(N[C@@H]4CCOC4)nc23)cc(Cl)n1 [Example 2.6] | 87 | 1 | 12 | > 1000 |
| Cc1cc(-c2c(-c3cccc(C#N)c3)nn3ccc(N4CCN(C)C(CO)C4)nc23)cc(Cl)n1 (stereo not drawn) [Example 2.7] | 76 | 1.3 | 57 | > 1000 |
| Cc1cc(-c2c(-c3cccc(C#N)c3)nn3ccc(NCC(C)(C)C(=O)O)nc23)cc(Cl)n1 [Example 2.13] | 1390 | 71.4 | 1310 | > 1000 |
| Cc1cc(-c2c(-c3cccc(C#N)c3)nn3ccc(NCC4CNC(=O)C4)nc23)cc(Cl)n1 (stereo not drawn) [Example 2.14] | 29 | 1.5 | 8 | > 1000 |
| Cc1cc(-c2c(-c3cccc(C#N)c3)nn3ccc(NC4CN5CCC4CC5)nc23)cc(Cl)n1 (stereo not drawn) [Example 2.17] | 45 | 2.4 | 6 | > 1000 |
| Cc1cc(-c2c(-c3cccc(C#N)c3)nn3ccc(NCCN4CCOCC4)nc23)cc(Cl)n1 [Example 2.19] | 32 | 2.8 | 21 | > 1000 |
| Cc1cc(-c2c(-c3cccc(C#N)c3)nn3ccc(N[C@@H]4CC[C@@H]4O)nc23)cc(Cl)n1 [Example 2.22] | 109 | 6.2 | 48 | > 1000 |
| Cc1cc(-c2c(-c3cccc(C#N)c3)nn3ccc(N[C@H]4CCOC4)nc23)cc(Cl)n1 [Example 2.25] | 674 | 7.5 | 27 | > 1000 |
| Cc1cc(-c2c(-c3cccc(C#N)c3)nn3ccc(N4CCS(=N)(=O)CC4)nc23)cc(Cl)n1 [Example 2.26] | 366 | 7.7 | 23 | > 1000 |
| Cc1cc(-c2c(-c3cccc(C#N)c3)nn3ccc(NC4CCS(=O)(=O)CC4)nc23)cc(Cl)n1 [Example 2.27] | 317 | 10.7 | 43 | > 1000 |
| Cc1cc(-c2c(-c3cccc(C#N)c3)nn3ccc(NCC(N)=O)nc23)cc(Cl)n1 [Example 2.28] | 81 | 11.6 | 2 | > 1000 |
| Cc1cc(-c2c(-c3cccc(C#N)c3)nn3ccc(N4CCNCC4)nc23)cc(Cl)n1 [Example 2.29] | 124 | 11.8 | 21 | > 1000 |
| Cc1cc(-c2c(-c3cccc(C#N)c3)nn3ccc(NC(C)CN(C)C)nc23)cc(Cl)n1 (stereo not drawn) [Example 2.30] | 450 | 15.8 | 55 | > 1000 |
| Cc1cc(-c2c(-c3cccc(C#N)c3)nn3ccc(O)nc23)cc(Cl)n1 [Example 2.31] | 551 | 15.8 | 70 | > 1000 |
| Cc1cc(-c2c(-c3cccc(C#N)c3)nn3ccc(NCc4ncc[nH]4)nc23)cc(Cl)n1 [Example 2.32] | 593 | 17.1 | 102 | > 1000 |

Second part, the compound after the results:

| Ki [1] [nM] | Ki [2] [nM] | Ki [3] [nM] | Ki [4] [nM] | SMILES |
| --- | --- | --- | --- | --- |
| 234 | 22.5 | 163 | > 1000 | Cc1cc(-c2c(-c3cccc(C#N)c3)nn3ccc(N4CCC4C(=O)O)nc23)cc(Cl)n1 (stereo not drawn) [Example 2.34] |
| 305 | 23.3 | 259 | 2530 | Cc1cc(-c2c(-c3cccc(C#N)c3)nn3ccc(N4CC(C(=O)O)C4)nc23)cc(Cl)n1 [Example 2.35] |
| 179 | 25.1 | 430 | > 1000 | Cc1cc(-c2c(-c3cccc(C#N)c3)nn3ccc(N4CC[C@@H](C(=O)O)C4)nc23)cc(Cl)n1 [Example 2.36] |
| 1410 | 26.5 | 9 | > 1000 | Cc1cc(-c2c(-c3cccc(C#N)c3)nn3ccc(N4CCN(S(N)(=O)=O)CC4)nc23)cc(Cl)n1 [Example 2.37] |
| 837 | 45.3 | 346 | > 1000 | Cc1cc(-c2c(-c3cccc(C#N)c3)nn3ccc(NC45CC(C(=O)O)(C4)C5)nc23)cc(Cl)n1 [Example 2.38] |
| 241 | 1.4 | 2 | > 1000 | Cc1cc(-c2c(-c3cccc(C#N)c3)nn3ccc(NC4CCN(CCO)CC4)nc23)cc(Cl)n1 [Example 2.39] |
| 145 | 5.7 | 23 | > 1000 | Cc1cc(-c2c(-c3cccc(C#N)c3)nn3ccc(N4CCN[C@@H](C(C)(C)O)C4)nc23)cc(Cl)n1 [Example 2.40] |
| 82 | 1.7 | 2 | > 1000 | Cc1cc(-c2c(-c3cccc(C#N)c3)nn3ccc(N4CCN[C@H](C(C)(C)O)C4)nc23)cc(Cl)n1 [Example 2.41] |
| 149 | 0.5 | 4 | > 1000 | Cc1cc(-c2c(-c3cccc(C#N)c3)nn3ccc(NC4CCN(C)CC4)nc23)cc(Cl)n1 [Example 2.42] |
| 522 | 38.5 | 163 | > 1000 | Cc1cc(-c2c(-c3cccc(C#N)c3)nn3ccc(NC[C@@H]4COCCN4)nc23)cc(Cl)n1 [Example 4.1] |
| 8 | 1.2 | 3 | > 1000 | Cc1cc(-c2c(-c3cccc(C#N)c3)nn3ccc(N[C@@H]4CCNC4)nc23)cc(Cl)n1 [Example 4.3] |
| 1100 | 3.2 | 149 | > 1000 | Cc1cc(-c2c(-c3cccc(C#N)c3)nn3ccc(N4C[C@@H]5NCCO[C@H]5C4)nc23)cc(Cl)n1 [Example 4.4] |
| 230 | 5.1 | 4 | > 1000 | Cc1cc(-c2c(-c3cccc(C#N)c3)nn3ccc(N[C@H]4CCNC4)nc23)cc(Cl)n1 [Example 4.6] |
| 213 | 13.9 | 6 | > 1000 | Cc1cc(-c2c(-c3cccc(C#N)c3)nn3ccc(N[C@H]4CCCNC4)nc23)cc(Cl)n1 [Example 4.7] |
| 7 | 0.5 | 6 | > 1000 | Cc1cc(-c2c(-c3cccc(C#N)c3)nn3ccc(N[C@H](C)[C@H](O)CO)nc23)cc(Cl)n1 [Example 4.8, 3-[3-(2-Chloro-6-methyl-4-pyridyl)-5-[[(1R,2S)-2,3-dihydroxy-1-methyl-propyl]amino]pyrazolo[1,5-a]pyrimidin-2-yl]benzonitrile] |
| 5 | 1.1 | 12 | > 1000 | Cc1cc(-c2c(-c3cccc(C#N)c3)nn3ccc(N[C@@H](C)[C@H](O)CO)nc23)cc(Cl)n1 [Example 4.9, 3-[3-(2-Chloro-6-methyl-4-pyridyl)-5-[[(1S,2S)-2,3-dihydroxy-1-methyl-propyl]amino]pyrazolo[1,5-a]pyrimidin-2-yl]benzonitrile] |
